In paper PMC9090415, “Discovery of small molecule inhibitors of Plasmodium falciparum apicoplast DNA polymerase” (Journal of Enzyme Inhibition and Medicinal Chemistry, 2022):

Target: P. falciparum apicoplast DNA polymerase (Pf-apPOL) (Plasmodium falciparum, UniProt Q8ILY1)
Experiment: Fluorescence-based high-throughput DNA polymerase assay (molecular beacon), primary screen and dose-response
Type: biochemical
Conditions: for DNA Pol: 90 min, 10 µM
Protocol: The HT assay employs a molecular beacon, a stem-loop DNA template with a Cy3 dye and the Black Hole Quencher on the 3′ and 5′ ends of the DNA, respectively. Pf-apPOL concentration is based on a calculated absorptivity of ε280 = 56750 M^−1 cm^−1. Reactions were carried out at 25 °C, using Corning 3575 […] (well-volume, 20 µL). Assays testing for compound inhibition composed of reaction buffer (pH 7.9 in 50 mM potassium acetate, 20 mM Tris-acetate and 10 mM magnesium acetate), Pf-apPOL (20 nM), DNA substrate (20 nM), dNTPs (6 µM), and compound (10 µM in DMSO). The DNA and nucleotide substrates (dNTPs) were at concentrations of 20 nM and 6 µM, respectively, in the assay. Pf-apPOL was incubated in the reaction buffer with dNTPs and the compound of interest (10 µM, in the assay) at 25 °C for 10 min. The DNA substrate was then added and the reaction was allowed to proceed for 90 min at 25 °C.
Each assay plate contained 16 negative controls (no Pf-apPOL, DMSO present) and 16 positive controls (Pf-apPOL present, no DMSO). The fluorescence of each well was determined using a BioTek Synergy Neo fluorescence plate reader using excitation and emission wavelengths of 555 and 570 nm, respectively.
In the above, Min is the average of fluorescence emission of the negative controls (substrate only), Max the average fluorescence emission from the positive controls (enzyme + substrate), and Test the emission from the assays in the presence of compounds (enzyme + compound + substrates). […] […] The IC50 of each compound was determined using Equation (2): (2) IC50= Vmax/(1+ (I/IC50)^n)
In the above, n measures cooperativity, with n > 1 indicating synergistic binding of more than a single molecule of the compound.
To identify apPOL inhibitors we utilised our previously developed high-throughput DNA polymerase assay. The HT assay is based on a molecular beacon DNA template that forms a stem-loop with a Cy3 dye and the Black Hole Quencher on the 3′ and 5′ ends of the DNA, respectively. DNA polymerase activity extends an annealed primer through the stem region, displacing the fluorophore from the quencher, thereby increasing its fluorescence (Figure 1(A)). The assay accurately recapitulates the kinetic behaviour of apPOL, as measured through more conventional low-throughput gel-based assays. The Z′ factor for the assay described here was 0.9 across all plates (data not shown).
Figure 1. High-throughput screening. (A) The fluorescent-based DNA polymerase assay used to screen the compound libraries. The DNA template strand is a hairpin loop with a primer annealed to the loop. The 3’ end of the primer is 11 bases away from the 6 bp duplex. Strand displacement activity of the DNA polymerase separates the Cy3 dye from the Black hole quencher leading to an increase in fluorescent signal. (B) The high-throughput assay workflow. The DNA polymerase is incubated with […] compound for 10 min prior to addition of the hairpin substrate. The reaction is quenched at 3 different time points and the fluorescent signal is measured and % inhibition is determined using the provided equation.

Chain of P. falciparum apicoplast DNA polymerase (Pf-apPOL) (Q8ILY1 entry or part of it): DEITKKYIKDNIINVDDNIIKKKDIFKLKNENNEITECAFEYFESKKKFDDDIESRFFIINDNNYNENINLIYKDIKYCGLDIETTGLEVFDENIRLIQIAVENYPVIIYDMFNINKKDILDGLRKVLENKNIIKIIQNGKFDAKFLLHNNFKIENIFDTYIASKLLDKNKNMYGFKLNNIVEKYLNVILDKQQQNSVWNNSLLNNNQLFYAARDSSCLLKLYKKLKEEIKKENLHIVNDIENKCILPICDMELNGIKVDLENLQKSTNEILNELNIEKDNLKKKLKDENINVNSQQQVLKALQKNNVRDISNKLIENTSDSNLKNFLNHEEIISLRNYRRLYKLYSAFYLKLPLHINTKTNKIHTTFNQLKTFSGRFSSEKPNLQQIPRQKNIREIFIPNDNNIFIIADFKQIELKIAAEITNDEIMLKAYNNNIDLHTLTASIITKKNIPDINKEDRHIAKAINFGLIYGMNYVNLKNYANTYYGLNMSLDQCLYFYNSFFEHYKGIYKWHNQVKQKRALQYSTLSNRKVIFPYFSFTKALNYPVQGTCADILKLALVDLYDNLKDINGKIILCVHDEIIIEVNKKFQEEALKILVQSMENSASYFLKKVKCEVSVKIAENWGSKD

Q: Which “DNA Pol” value ('DNA Pol', screening value, unit not given) does the source give for `CCOc1ccccc1-c1nc(-c2ccc(=O)[nH]c2)no1` [Molecule 76, CCOc1ccccc1c1onc(n1)c1ccc(=O)[nH]c1] here?
A: The value was 20.

Q: What about the “% inhibition Apo pol 10'” value (DRC-1, concentration 2.5) of the same compound?
A: The value was 0.6967%.

Q: What about the “% inhibition Apo pol 10'” value (DRC-1, concentration 5) of the same compound?
A: Its value is 11.2745%.

Q: And the “% inhibition Apo pol 10'” value (DRC-1, concentration 10)?
A: Its value is 18.9586%.

Q: What about the “% inhibition Apo pol 10'” value (DRC-1, concentration 20) of the same compound?
A: The value was 38.1067%.

Q: And the “% inhibition Apo pol 10'” value (DRC-1, concentration 40)?
A: The value was 53.5893%.

Q: And the “% inhibition Apo pol 10'” value (DRC-1, concentration 80)?
A: The value was 52.085%.

Q: And the “% inhibition Apol 90'” value (DRC-1, 90', concentration 2.5)?
A: The value was 1.791%.

Q: And the “% inhibition Apol 90'” value (DRC-1, 90', concentration 5)?
A: The value was 6.12%.

Q: What about the “% inhibition Apol 90'” value (DRC-1, 90', concentration 10) of the same compound?
A: Its value is 9.377%.

Q: And the “% inhibition Apol 90'” value (DRC-1, 90', concentration 20)?
A: Its value is 23.8682%.

Q: What about the “% inhibition Apol 90'” value (DRC-1, 90', concentration 40) of the same compound?
A: Its value is 40.5664%.

Q: What about the “% inhibition Apol 90'” value (DRC-1, 90', concentration 80) of the same compound?
A: The value was 58.194%.

Q: What about the “% inhibition apPOL 180'” value (DRC-1, 180', concentration 2.5) of the same compound?
A: Its value is 0.4069%.

Q: What about the “% inhibition apPOL 180'” value (DRC-1, 180', concentration 5) of the same compound?
A: The value was -0.1254%.

Q: What about the “% inhibition apPOL 180'” value (DRC-1, 180', concentration 10) of the same compound?
A: Its value is 3.145%.

Q: What about the “% inhibition apPOL 180'” value (DRC-1, 180', concentration 20) of the same compound?
A: The value was 13.7998%.

Q: What about the “% inhibition apPOL 180'” value (DRC-1, 180', concentration 40) of the same compound?
A: Its value is 29.3034%.

Q: And the “% inhibition apPOL 180'” value (DRC-1, 180', concentration 80)?
A: The value was 52.1842%.

Q: What about the “% inhibition Apo pol 5'” value (DRC-2, 5', concentration 2.5) of the same compound?
A: The value was -5.31%.

Q: What about the “% inhibition Apo pol 5'” value (DRC-2, 5', concentration 5) of the same compound?
A: The value was 5%.

Q: What about the “% inhibition Apo pol 5'” value (DRC-2, 5', concentration 10) of the same compound?
A: Its value is 19%.

Q: What about the “% inhibition Apo pol 5'” value (DRC-2, 5', concentration 20) of the same compound?
A: The value was 30%.

Q: What about the “% inhibition Apo pol 5'” value (DRC-2, 5', concentration 40) of the same compound?
A: Its value is 44%.

Q: And the “% inhibition Apo pol 5'” value (DRC-2, 5', concentration 80)?
A: The value was 29%.

Q: And the “% inhibition Apol 40'” value (DRC-2, 40', concentration 2.5)?
A: Its value is 0.0959%.

Q: And the “% inhibition Apol 40'” value (DRC-2, 40', concentration 5)?
A: Its value is 6.65%.

Q: And the “% inhibition Apol 40'” value (DRC-2, 40', concentration 10)?
A: The value was 18%.

Q: And the “% inhibition Apol 40'” value (DRC-2, 40', concentration 20)?
A: Its value is 30%.

Q: What about the “% inhibition Apol 40'” value (DRC-2, 40', concentration 40) of the same compound?
A: The value was 50%.

Q: What about the “% inhibition Apol 40'” value (DRC-2, 40', concentration 80) of the same compound?
A: The value was 55%.

Q: And the “% inhibition ApPOL 90'” value (DRC-2, 90', concentration 2.5)?
A: The value was -0.625%.

Q: And the “% inhibition ApPOL 90'” value (DRC-2, 90', concentration 5)?
A: The value was 5%.

Q: What about the “% inhibition ApPOL 90'” value (DRC-2, 90', concentration 10) of the same compound?
A: Its value is 15%.

Q: And the “% inhibition ApPOL 90'” value (DRC-2, 90', concentration 20)?
A: The value was 26%.

Q: What about the “% inhibition ApPOL 90'” value (DRC-2, 90', concentration 40) of the same compound?
A: Its value is 48%.

Q: And the “% inhibition ApPOL 90'” value (DRC-2, 90', concentration 80)?
A: Its value is 56%.

Q: And the “% inhibition apPOL 180'” value (DRC-2, 180', concentration 2.5)?
A: The value was -3%.

Q: And the “% inhibition apPOL 180'” value (DRC-2, 180', concentration 5)?
A: Its value is 1.18%.

Q: And the “% inhibition apPOL 180'” value (DRC-2, 180', concentration 10)?
A: Its value is 8%.

Q: And the “% inhibition apPOL 180'” value (DRC-2, 180', concentration 20)?
A: Its value is 16%.

Q: What about the “% inhibition apPOL 180'” value (DRC-2, 180', concentration 40) of the same compound?
A: The value was 37%.

Q: What about the “% inhibition apPOL 180'” value (DRC-2, 180', concentration 80) of the same compound?
A: Its value is 54%.

Q: And the “% inhibition Apo pol 5'” value (conc 5 (unit not given), 5', DRC-2)?
A: The value was 5%.

Q: What about the “% inhibition ApPOL 90'” value (conc 5 (unit not given), 90', DRC-2) of the same compound?
A: Its value is 5%.

Q: And the “% inhibition Apo pol 5'” value (conc 20 (unit not given), 5', DRC-2)?
A: The value was 30%.

Q: And the “% inhibition Apol 40'” value (conc 20 (unit not given), 40', DRC-2)?
A: The value was 30%.

Q: And the “DNA Pol” value (primary screen hit value, DNA Pol (186 hits))?
A: The value was 20.
